Reference: patent publication US10045961B2, “Use of sting agonists to treat chronic hepatitis B virus infection” (DREXEL UNIVERSITY, priority 2013, dated 2018)
Entries after “also recorded” stand apart in the source; their conditions may differ.

Experiments:
[1] = test system: HBV DNA replication in AML12HBV10 cells; assay: Direct treatment of AML12HBV10 cells, cytoplasmic HBV core DNA by Southern blot; conditions: for HBV DNA replication, direct treatment: AML12HBV10 cells treated directly for 2 days, cytoplasmic HBV core DNA; for HBV DNA replication, cytokine treatment: AML12HBV10 cells treated for 4 days
From the text: AML12HBV10, an immortalized murine hepatocyte (AML12)-derived cell line supporting high level of HBV replication in a tetracycline (tet)-inducible manner, was maintained as described in Xu C, et al. Interferons accelerate decay of replication-competent nucleocapsids of hepatitis B virus.
HBV core DNA extraction from AML12HBV10 cells as well as analyses by Southern blot hybridization and real-time PCR assays were as described previously in Xu C, et al. Interferons accelerate decay of replication-competent nucleocapsids of hepatitis B virus. […] Total cellular RNA was extracted using TRIzol reagent (Invitrogen). HBV RNA was analyzed by Northern blot hybridization with an α-^32P-UTP-labeled full-length minus-stranded RNA probe. HBV capsid and capsid associated viral DNA was analyzed by a native agarose gel electrophoresis followed by transfer to a nitrocellulose membrane. HBV capsids were detected by probing the membrane with an antibody against HBV core protein followed by visualizing with LI-COR Odyssey system. Capsid-associated DNA was detected by hybridization with radioactively labeled HBV riboprobe.
(§4) The assay system was first validated with known TLR agonists. […] Twenty-four hours later, the cells were treated with the indicated concentrations of TLR agonists (direct treatment) (FIG. 1B). […] Cytoplasmic HBV core DNA was analyzed by Southern blot hybridization two days post treatment.
(§5) AMLHBV10 cells, grown in Dulbecco's Modification of Eagle's Medium (DMEM)/F12 medium with 1 μg/ml of tetracycline were seeded in 12-well plate at density of 1×10^5 cell/well for 1 day in absence of tetracycline to release HBV replication. […] HBV core DNA was extracted from AML12HBV10 cells 2 days post treatment, and detected by Southern blot assay.
Cytoplasmic HBV core DNA was analyzed by Southern blot hybridization. NT controls were as described in FIG. 1B (FIG. 3B). […] AML12HBV10 cells treated with the indicated concentrations of mouse alpha IFN (mIFN-α) for 2 days served as positive controls. Cytoplasmic HBV core DNA was analyzed by Southern blot hybridization (FIG. 3D).

[2] = test system: HBV DNA replication in AML12HBV10 cells; assay: Indirect treatment: conditioned media from treated RAW264.7 macrophages applied to AML12HBV10 cells, HBV core DNA by Southern blot; conditions: AML12HBV10 cells treated 2 days with 50% conditioned media from RAW264.7 cells treated 12 h
Procedure: as §4, §5
Intracellular HBV RNA was determined by Northern blot (ribosomal RNA served as loading control). HBV core protein was determined by Western blot assay using antibody against carboxyl terminal 14 amino acid of HBV core protein (β-actin served as loading control). HBV nucleocapsids were examined by a particle gel assay to detect both the intact nucleocapsids and capsid-associated HBV DNA. Encapsidated HBV (core DNA) replication intermediates (RC, DSL and SS) were determined by Southern blot assay.
Using the assay system described above, 75 flavonoids in MicroSource compound collection (MicroSource Discovery Systems, Inc.) were tested again. […] Cytoplasmic HBV core DNA was analyzed by Southern blot hybridization. […] AML12HBV10 cells treated with the indicated concentrations of mouse alpha IFN (mIFN-α) for 2 days served as positive controls. Cytoplasmic HBV core DNA was analyzed by Southern blot hybridization (FIG. 3D).

HBV capsids = assay: HBV core protein, capsids and capsid-associated DNA in AML12HBV10 cells after indirect treatment; format: cell-based, hepatitis B virus; conditions: 2 days; for amount of HBV capsid protein: Western blot
Procedure: HBV core DNA extraction from AML12HBV10 cells as well as analyses by Southern blot hybridization and real-time PCR assays were as described previously in Xu C, et al. Interferons accelerate decay of replication-competent nucleocapsids of hepatitis B virus. J Virol 2010; 84:9332-40, and Campagna M R, et al. Sulfamoylbenzamide Derivatives Inhibit the Assembly of Hepatitis B Virus Nucleocapsids. J Virol 2013. Total cellular RNA was extracted using TRIzol reagent (Invitrogen). HBV RNA was analyzed by Northern blot hybridization with an α-^32P-UTP-labeled full-length minus-stranded RNA probe. HBV capsid and capsid associated viral DNA was analyzed by a native agarose gel electrophoresis followed by transfer to a nitrocellulose membrane. HBV capsids were detected by probing the membrane with an antibody against HBV core protein followed by visualizing with LI-COR Odyssey system. Capsid-associated DNA was detected by hybridization with radioactively labeled HBV riboprobe.
In order to map the HBV replication step(s) being inhibited by DMXAA-induced antiviral response in macrophages, AML12HBV10 cells were treated with conditioned media harvested from TLR agonist- or DMXAA-treated RAW264.7 cells. […]. The AML12HBV10 cells were harvested 2 days after treatment for the following analysis: (FIG. 4A) Intracellular HBV RNA was determined by Northern blot (pgRNA, pre-genomic RNA, envRNAs, viral mRNAs specifying envelope proteins. 18S ribosomal RNA (rRNA) served as loading controls); (FIG. 4B) HBV core protein was determined by Western blot assay using total cell lysate (β-actin served as a loading control); the amounts of HBV capsids (FIG. 4C) and capsid-associated HBV DNA (FIG. 4D) were determined by a native agarose gel assay; and (FIG. 4E) Cytoplasmic HBV core DNA was determined by Southern blot hybridization.

[3] = test system: proinflammatory cytokines (IL6, IL1, IL10, TNF-α, IL12) and chemokine CXCL10; assay: qRT-PCR of proinflammatory cytokine and chemokine mRNA in RAW264.7 cells
Procedure: (§6) For cytokine gene expression analysis, total RNA was extracted using TRIzol reagent. cDNAs were synthesized using SuperScript III (Invitrogen). Quantitative real-time PCR analysis was performed using a LightCycler 480 II (Roche).
(§7) The amounts of mRNA specifying the specific cytokines and chemokines were quantified by real-time RT-PCR assays. Data (mean±standard deviation, N=3) were expressed as fold induction of gene expression relative to untreated controls.

TBK1 = assay: Western blot of TBK1 phosphorylation in RAW264.7 cells; format: cell-based, mouse; conditions: 125 μM DMXAA
From the text: (§1) Total cellular proteins were fractioned by SDS-PAGE and transferred onto PVDF membranes. Total and phosphorylated STING, TBK1, p38, JNK and Erk as well as IkB-α were detected by Western blot assays with their specific antibodies. β-actin served as a loading control.

[4] = test system: HBV DNA in AML12HBV10 cells; assay: Blockade of type I IFN receptor (IFNAR1 antibody) in AML12HBV10 cells, HBV DNA by real-time PCR; format: cell-based, hepatitis B virus; conditions: AML12HBV10 cells pre-incubated with 10 μg/ml IFNAR1 antibody; mIFN-α directly or conditioned media from DMXAA-treated RAW264.7 cells
Procedure: AML12HBV10 cells cultured in absence of tetracycline for 1 day, were incubated either with or without 10 μg/ml of a monoclonal antibody against type I interferon receptor IFNAR1 (Ab INFAR) at 37° C. for 1 h, followed by treatment for 2 days with the indicated concentrations of mIFN-α (FIG. 7A) or 50% of conditioned media harvested from RAW264.7 cells (treated with the indicated concentrations of DMXAA for 12 h) (FIG. 7B). Cytolplasmic HBV DNA were quantified by a real-time PCR assay and data (mean±standard deviation, N=4) were presented as percentage of mock-treated controls (NT). AML12HBV10 cells cultured in the absence of tetracycline were treated with the indicated concentrations of IL-1, IL-6 or TNF-α for 4 days (FIG. 7C). Cytoplasmic HBV core DNA was analyzed by Southern blot hybridization.

HBV = HBV DNA hydrodynamic mouse model, intrahepatic HBV core DNA; format: in vivo, NOD/SCID mice; conditions: single 25 mg/kg intraperitoneal dose, 24 h after treatment
Procedure: (§2) Ten-week-old female NOD/SCID mice were purchased from Vital River Laboratory Animal Technology Co. Ltd. All experiments were conducted with Institutional Animal Care and Use Committee approval. To establish HBV hydrodynamic model, 13.5 μg of plasmid pTmcsHBV1.3 expressing 1.3mer HBV genome and 4.5 μg of pCMV-SB expressing the Sleeping Beauty transposase were injected through tail vein, according to procedures previously described. To test the efficacy of DMXAA in vivo, 7 days post injection, mice were treated with either DMXAA (in PBS with 7.5% sodium Bicarbonate) at 25 mg/kg or vehicle, via intraperitoneal injection. Mice were sacrificed 24 h after treatment. Intrahepatic HBV core DNA was extracted and quantified by using a real-time PCR assay. Intrahepatic total RNA was extracted and the interferon stimulated genes (ISGs) OAS1b and viperin mRNAs were determined by real-time RT-PCR assay. Weight of individual mouse was monitored before and 24 h after the treatment.
(§3) To further validate the antiviral effects of DMXAA in vivo, NOD/SCID mice were hydrodynamically injected with HBV 1.3mer plasmid to establish HBV replication in hepatocytes. […] (FIG. 9A) Twenty-four hours post treatment, HBV core DNA was extracted from livers and analyzed by a real-time PCR assay. […] (FIGS. 9B and 9C) Total RNA was extracted from livers and mRNA levels of OAS1b and viperin were analyzed by real-time RT-PCR assay. […]

MAPK pathways = assay: Western blot of MAPK pathway activation (phosphorylated p38α, JNK, ERK) in RAW264.7 cells; format: cell-based, mouse
From the text: as §1

[5] = test system: interferon stimulated genes (ISGs) OAS1b and viperin; assay: HBV hydrodynamic mouse model, intrahepatic ISG mRNA (OAS1b, viperin); format: in vivo, NOD/SCID mice; conditions: single 25 mg/kg intraperitoneal dose, 24 h
Procedure: as §2, §3

IFN-β mRNA = assay: qRT-PCR of IFN-β mRNA in RAW264.7 cells
Procedure: as §6, §7

[6] = test system: HBV replication in human hepatoma cells (HepDES19); assay: Conditioned medium from DMXAA-treated THP-1hSTINGS162 cells on DES19 human hepatoma cells, HBV core DNA by real time PCR; conditions: media from THP1-hSTING/S162 cells treated 12 hrs, 6 days
Procedure: Additionally, THP-1hSTINGS162 cells were treated with DMXAA for 12 hrs, conditioned medium with indicated dilution were then transferred to DES19, a human hepatoma cell line harboring HBV replication. HBV core DNA was extracted 6 days post treatment, and quantified by real time PCR assay. HBV DNA expression levels (means±standard deviations, N=3) were expressed as percentage relative to mock treated control. DES19 cells treated with IFN-α served as positive control (FIG. 10B).

[7] = HBV hydrodynamic mouse model, body weight; format: in vivo, NOD/SCID mice; conditions: single 25 mg/kg intraperitoneal dose, 24 h; data not shown
Procedure: as §2

[8] = test system: HBV DNA in AML12HBV10 cells; assay: Conditioned media from shSTING RAW264.7 cells on AML12HBV10 cells, HBV core DNA by real time PCR; format: cell-based, hepatitis B virus; conditions: 2 days
IκBα = assay: Western blot of IκBα degradation in RAW264.7 cells; format: cell-based, mouse; conditions: 125 μM DMXAA
From the text: as §1

CCN(CC)CCOc1ccc2c(c1)C(=O)c1cc(OCCN(CC)CC)ccc1-2 [tilorine, 2,7-Bis[2-(diethylamino)ethoxy]-9-fluorenone]
HBV DNA replication, direct treatment [1]: neither directly nor indirectly inhibited HBV replication
HBV DNA replication, indirect treatment [2]: neither directly nor indirectly inhibited HBV replication

TNF-α
HBV DNA replication, cytokine treatment [1]: inhibited HBV DNA replication

poly I:C
amount of HBV capsid protein (HBV capsids): to lesser extents
HBV DNA replication, direct treatment [1]: did not apparently inhibit HBV DNA replication
HBV DNA replication, indirect treatment [2]: potently inhibited HBV DNA replication

Cc1ccc2c(=O)c3cccc(CC(=O)O)c3oc2c1C [DMXAA, 5,6-dimethylxanthenone-4-acetic acid]
time of peak of inflammatory cytokine response (IL-1 and IL-10) [3]: ≥ 6 h
IFN and inflammatory cytokine response profile ([3]; qRT-PCR, DMXAA compared with TLR agonists): predominant IFN response, but less vigorous inflammatory cytokine response
phosphorylation of TBK1 (TBK1): efficiently induced phosphorylation of TBK1
antiviral response after blockade of type I IFN receptor [4]: significantly attenuated
reduction of intrahepatic HBV core DNA versus vehicle (HBV): 1.3 log
time at which activation of MAPK pathways (phosphorylated p38α, JNK, ERK) was evident (MAPK pathways): 90 min
OAS1b expression in liver [5]: significantly induced
viperin expression in liver [5]: significantly induced
time of peak of IFN-β response (IFN-β mRNA): 2 h
IFN-β mRNA expression relative to TLR1/2, TLR3 or TLR7 agonists (IFN-β mRNA; 125 μM, 2 h post treatment): approximately 100 fold
HBV replication in human hepatoma cells, conditioned media [6]: efficiently suppressed HBV replication
reduction of average body weight [7]: approximately 8%
antiviral activity against HBV with STING knockdown cells [8]: significantly attenuated
amounts of HBV DNA replication intermediates (HBV capsids): decreased
amount of HBV capsid protein (HBV capsids): reduced the amounts of HBV capsid protein
HBV DNA replication, direct treatment [1]: does not inhibit HBV DNA replication
HBV DNA replication, indirect treatment [2]: strong indirect anti-HBV activity; also recorded: inhibits HBV DNA replication in the mouse hepatocytes in a dose-dependent manner
degradation of IκBα (IκBα): induced degradation of IκBα

O=c1cc(-c2ccccc2O)oc2cc(O)ccc12 [7, 2′-dihydroxyflavone]
HBV DNA replication, direct treatment [1]: not direct
HBV DNA replication, indirect treatment [2]: indirect, but not direct, antiviral activity against HBV
HBV DNA replication, indirect treatment ([2]; listed as 7, 2′ dihydroxyflavone): induces antiviral activity against HBV

Pam3CSK4
amount of HBV capsid protein (HBV capsids): to lesser extents
HBV DNA replication, direct treatment [1]: did not apparently inhibit HBV DNA replication
HBV DNA replication, indirect treatment [2]: potently inhibited HBV DNA replication

IFN-α
antiviral response after blockade of type I IFN receptor [4]: significantly reduced

CCNCc1nc2c(N)nc3ccccc3c2n1CC(C)(C)O [gardiquimod]
HBV DNA replication, direct treatment [1]: did not apparently inhibit HBV DNA replication
HBV DNA replication, indirect treatment [2]: potently inhibited HBV DNA replication

B1: IL-6: Recombinant murine IL-6 from PBL InterferonSource (protein, UniProt P08505 25-211, looked up)
Interleukin-6: FPTSQVRRGDFTEDTTPNRPVYTTSQVGGLITHVLWEIVEMRKELCNGNSDCMNNDDALAENNLKLPEIQRNDGCYQTGYNQEICLLKISSGLLEYHSYLEYMKNNLKDNKKDKARVLQRDTETLIHIFNQEVKDLHKIVLPTPISNALLTDKLESQKEWLRTKTIQFILKSLEEFLKVTLRSTRQT
HBV DNA replication, cytokine treatment [1]: only TNF-α inhibited HBV DNA replication
